We go through three compounds from paper PMC4783990, “Cloning and Characterization of a Flavonoid 3′-Hydroxylase Gene from Tea Plant (Camellia sinensis)” (International Journal of Molecular Sciences, 2016).

The target in the test is T1, CsF3′H (Camellia sinensis, UniProt A0A0S2LLA9).
T1 construct: microsomes of Saccharomyces cerevisiae WAT11, which co-expresses an Arabidopsis thaliana P450 reductase; ORF amplified with its own stop codon, no tag stated
In words: HPLC product formation with recombinant yeast microsomes. In kind it is biochemical. The conditions noted are these: 1.0 mM NADPH, 100 mM sodium phosphate pH 7.0, 30 °C, 30 min. From the text: HPLC product formation with recombinant yeast microsomes on CsF3′H

Read-outs that look alike come from different tables or passages of the source.

T1 sequence (A0A0S2LLA9 entry or part of it): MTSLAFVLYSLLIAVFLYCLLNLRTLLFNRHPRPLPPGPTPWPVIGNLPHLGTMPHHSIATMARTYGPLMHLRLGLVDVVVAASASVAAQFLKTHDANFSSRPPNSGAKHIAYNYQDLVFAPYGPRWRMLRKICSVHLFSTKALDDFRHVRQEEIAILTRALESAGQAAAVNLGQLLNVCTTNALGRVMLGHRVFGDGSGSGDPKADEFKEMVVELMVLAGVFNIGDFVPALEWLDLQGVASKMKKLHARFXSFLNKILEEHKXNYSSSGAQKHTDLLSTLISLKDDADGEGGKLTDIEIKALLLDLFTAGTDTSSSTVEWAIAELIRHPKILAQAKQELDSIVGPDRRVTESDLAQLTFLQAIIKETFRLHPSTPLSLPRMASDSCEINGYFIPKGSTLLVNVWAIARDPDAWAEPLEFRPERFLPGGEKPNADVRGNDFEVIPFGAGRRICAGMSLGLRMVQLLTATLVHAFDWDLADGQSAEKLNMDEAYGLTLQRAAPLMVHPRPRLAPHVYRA

Take `O=C1CC(c2ccc(O)cc2)Oc2cc(O)cc(O)c21` (racemic) [Naringenin]: the Km (racemic substrate, read-out: Naringenin) was found to be 17.1 ± 0.46 µM.

For `O=c1c(O)c(-c2ccc(O)cc2)oc2cc(O)cc(O)c12` [Kaempferol], the Km (read-out: Kaempferol) is 68.06 ± 0.43 µM. Regarding `O=C1c2c(O)cc(O)cc2OC(c2ccc(O)cc2)C1O` (racemic) [Dihydrokaempferol], the Km (racemic substrate, read-out: Dihydrokaempferol) came out at 143.6 ± 0.69 µM.
